Tests used:
Format in all cases: binding, mice
[1] = tested on: antibodies generated following vaccination with hapten 4; test: Competitive ELISA, day 35 pooled sera of hapten 4 vaccine group; conditions: for % Inhibition, HAPTEN 4: SCRA at 10 μM; for % Inhibition, HAPTEN 4 / IC50: day 35 pooled sera; for IC50: 11 concentrations; for binding by hapten 4 antibodies (in words): day 35 sera
Method: (§1) Vaccination: Vaccine formulation consisted of our bioconjugates at 1 mg/mL (100 μg/mouse), Alum (50 μg/mouse) and a 1 mg/mL CpG ODN 1826 (50 μg/mouse) in 1X PBS solution. Vaccines were shaken at 4 °C for 45 min prior to animal use. Mock vaccines consisted of the same components with the bioconjugate replaced with native KLH. All animals were vaccinated on day zero and received two boosts, one on day 14 and one on day 28. Sera was collected from each animal on days 21 and 35 via retroorbital blood draws.
(§2) Antibody Titers: Costar® 96-well plates were coated with 25 μL of a 5 μg/mL solution of hapten-BSA conjugate and incubated overnight at 37 °C. Plates were then methanol fixed and non-specific protein binding was blocked with 5% Blotto for 30 min. Pooled sera from either day 21 (1:100 in 5% blotto) or 35 (1:400) were added and serially diluted across the plate before incubating at 37 °C for 60 min. Plates were then washed with 1X PBS prior to the addition of secondary antibody conjugated to horse-radish peroxidase, which incubated at 37 °C for 30 min. Equal parts tetramethylbenzidine and hydrogen peroxide (50 μL) were added to each well and reacted for 15 min before being quenched with 50 μL of 2M sulfuric acid. Optical densities were determined at 450 nm using MiniMax 300 plate reader (Molecular Devices). Lastly, midpoint titers were calculated from the % optical density versus log(dilution) using the log(inhibition) vs response variable slope equation on GraphPad Prism v9 (San Diego, CA, USA).
(§3) Competitive ELISA: Costar® 96-well plates were coated as described in the antibody titer section. After the plates are blocked, 25 μL of a 1:titer solution of each BSA-hapten conjugate is added to every well. Equal volume of a 40 μM solution of each SCRA is then added to column one, and 1:2 serially diluted concentrations added across the wells. Optical densities were determined as in titer experiments, and percent inhibitions were evaluated with GraphPad Prism 9 as in titer experiments.

[2] = tested on: antibodies generated from vaccination with hapten 2; test: Competitive ELISA, day 35 pooled sera of hapten 2 vaccine group; conditions: for % Inhibition, HAPTEN 2: SCRA at 10 μM, day 35 pooled sera
Method: as §1, §2, §3

[3] = tested on: antibodies generated following vaccination with hapten 3; test: Competitive ELISA, day 35 pooled sera of hapten 3 vaccine group; conditions: for % Inhibition, HAPTEN 3: SCRA at 10 μM; for % Inhibition, HAPTEN 3 / IC50: day 35 pooled sera; for IC50: 11 concentrations; for binding by hapten 3 antibodies (in words): day 35 sera
Method: as §1, §2, §3

[4] = tested on: antibodies generated from vaccination with hapten 1; test: Competitive ELISA, day 35 pooled sera of hapten 1 vaccine group; conditions: for % Inhibition, HAPTEN 1: SCRA at 10 μM; for % Inhibition, HAPTEN 1 / IC50: day 35 pooled sera; for IC50: 11 concentrations; for reactivity of hapten 1 antibodies (in words): day 35 sera
Method: as §1, §2, §3

For `COC(=O)C(NC(=O)c1nn(Cc2ccc(F)cc2)c2ccccc12)C(C)C` (centres unmarked) [Compound 7, AMB-FUBINACA], the “% Inhibition, HAPTEN 4” value [1] was 77.7%, the IC50 [1] was 966 nM and the “binding by hapten 4 antibodies (in words)” value [1] was “sub-micromolar”. The “% Inhibition, HAPTEN 2” value [2] was 30.7%, the “% Inhibition, HAPTEN 3” value [3] was 76.0% and the IC50 [3] was 299 nM. For the same compound, the “binding by hapten 3 antibodies (in words)” value [3] was “sub-micromolar” and the “% Inhibition, HAPTEN 1” value [4] was 11.1%.

For `CCCCCn1cc(C(=O)NC(C(=O)OC)C(C)C)c2ccccc21` (centres unmarked) [Compound 3, MMB-PICA], the “% Inhibition, HAPTEN 4” value [1] was 71.0%, the IC50 [1] was 1260 nM and the “binding by hapten 4 antibodies (in words)” value [1] was “bind”. The “% Inhibition, HAPTEN 2” value [2] was 15.2%, the “% Inhibition, HAPTEN 3” value [3] was 91.8% and the IC50 [3] was 38 nM. The “binding by hapten 3 antibodies (in words)” value [3] was “micromolar to sub-micromolar” and the “% Inhibition, HAPTEN 1” value [4] was 0.0%.

In the case of `CCCCCn1cc(C(=O)c2cccc3ccccc23)c2ccccc21` [Compound 1, JWH-018], the “% Inhibition, HAPTEN 4” value [1] is reported as 10.9%, the “% Inhibition, HAPTEN 2” value [2] is reported as 17.7% and the “% Inhibition, HAPTEN 3” value [3] is reported as 14.6%. The “% Inhibition, HAPTEN 1” value [4] was 60.0%, the IC50 [4] was 5540 nM and the “reactivity of hapten 1 antibodies (in words)” value [4] was “micromolar”.

For `COC(=O)C(NC(=O)c1cn(CCCCCF)c2ccccc12)C(C)C` (centres unmarked) [Compound 4], the “% Inhibition, HAPTEN 4” value [1] was 54.3%, the IC50 [1] was 6690 nM and the “binding by hapten 4 antibodies (in words)” value [1] was “bind”. The “% Inhibition, HAPTEN 2” value [2] was 19.9%, the “% Inhibition, HAPTEN 3” value [3] was 69.0% and the IC50 [3] was 744 nM. The “binding by hapten 3 antibodies (in words)” value [3] was “micromolar to sub-micromolar” and the “% Inhibition, HAPTEN 1” value [4] was 8.8%.

`COC(=O)C(NC(=O)c1nn(CCCCCF)c2ccccc12)C(C)C` (centres unmarked) [Compound 6, 5F-AMB] was tested, and the “% Inhibition, HAPTEN 4” value [1] was 63.9%, the IC50 [1] was 2660 nM and the “binding by hapten 4 antibodies (in words)” value [1] was “bind”. For the same compound, the “% Inhibition, HAPTEN 2” value [2] was 28.7%, the “% Inhibition, HAPTEN 3” value [3] was 57.4% and the IC50 [3] was 3320 nM. The “binding by hapten 3 antibodies (in words)” value [3] was “micromolar to sub-micromolar” and the “% Inhibition, HAPTEN 1” value [4] was 16.8%.

`O=C(c1cccc2ccccc12)c1cn(CCCCCF)c2ccccc12` [Compound 2, AM-2201] was tested, and the “% Inhibition, HAPTEN 4” value [1] was 14.4%, the “% Inhibition, HAPTEN 2” value [2] was 29.5% and the “% Inhibition, HAPTEN 3” value [3] was 18.0%. For the same compound, the “% Inhibition, HAPTEN 1” value [4] was 79.3%, the “IC50 for hapten 1 relative to compound 1” value ([4]; compared with IC50 against compound 1) was “approximately five times lower” and the IC50 [4] was 1140 nM. For the same compound, the “reactivity of hapten 1 antibodies (in words)” value [4] was “micromolar”.

In the case of `CCCCCn1cc(C(=O)Oc2cccc3ccccc23)c2ccccc21` [Compound 8, NAPIC], the “% Inhibition, HAPTEN 4” value [1] is reported as 11.0%, the “% Inhibition, HAPTEN 2” value [2] is reported as 31.5% and the “reactivity of hapten 2 antibodies (in words)” value ([2]; day 35 sera) is reported as “little to no reactivity”. For the same compound, the “% Inhibition, HAPTEN 3” value [3] was 19.2%, the “% Inhibition, HAPTEN 1” value [4] was 13.6% and the “reactivity of hapten 1 antibodies (in words)” value [4] was “no reactivity”.

With `CCCCCn1nc(C(=O)NC(C(=O)OC)C(C)C)c2ccccc21` (centres unmarked) [Compound 5, MMB-PINACA] the “% Inhibition, HAPTEN 4” value [1] was 85.5%, the IC50 [1] was 334 nM and the “binding by hapten 4 antibodies (in words)” value [1] was “bind”. The “% Inhibition, HAPTEN 2” value [2] was 25.5%, the “% Inhibition, HAPTEN 3” value [3] was 82.6% and the IC50 [3] was 269 nM. The “binding by hapten 3 antibodies (in words)” value [3] was “micromolar to sub-micromolar” and the “% Inhibition, HAPTEN 1” value [4] was 6.9%.
